Earlier results in PMC9516332 (Frontiers in Oncology, 2022).
Where two headings read alike, the source gives them in different places.

How the values were obtained:
Conditions in all cases: cited from earlier work
[1] = molecular target: T1, panel of 255 wild-type kinases (Homo sapiens, UniProt Q9HBY8)
T1 sequence (Q9HBY8 1-367): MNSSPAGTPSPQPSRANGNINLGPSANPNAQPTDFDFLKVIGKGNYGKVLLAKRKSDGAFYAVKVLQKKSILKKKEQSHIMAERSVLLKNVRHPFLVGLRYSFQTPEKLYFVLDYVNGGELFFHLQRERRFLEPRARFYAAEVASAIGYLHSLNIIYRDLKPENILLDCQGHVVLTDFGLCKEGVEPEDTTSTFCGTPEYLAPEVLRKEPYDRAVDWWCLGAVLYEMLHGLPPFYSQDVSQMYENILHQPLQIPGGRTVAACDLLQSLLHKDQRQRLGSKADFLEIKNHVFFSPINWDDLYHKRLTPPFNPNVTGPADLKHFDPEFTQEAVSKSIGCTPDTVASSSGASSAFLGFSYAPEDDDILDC

[2] = molecular target: panel of 255 wild-type kinases (Homo sapiens, UniProt P49760)
[3] = molecular target: T2, panel of 255 wild-type kinases (Homo sapiens, UniProt Q13237)
T2 sequence (Q13237 1-762): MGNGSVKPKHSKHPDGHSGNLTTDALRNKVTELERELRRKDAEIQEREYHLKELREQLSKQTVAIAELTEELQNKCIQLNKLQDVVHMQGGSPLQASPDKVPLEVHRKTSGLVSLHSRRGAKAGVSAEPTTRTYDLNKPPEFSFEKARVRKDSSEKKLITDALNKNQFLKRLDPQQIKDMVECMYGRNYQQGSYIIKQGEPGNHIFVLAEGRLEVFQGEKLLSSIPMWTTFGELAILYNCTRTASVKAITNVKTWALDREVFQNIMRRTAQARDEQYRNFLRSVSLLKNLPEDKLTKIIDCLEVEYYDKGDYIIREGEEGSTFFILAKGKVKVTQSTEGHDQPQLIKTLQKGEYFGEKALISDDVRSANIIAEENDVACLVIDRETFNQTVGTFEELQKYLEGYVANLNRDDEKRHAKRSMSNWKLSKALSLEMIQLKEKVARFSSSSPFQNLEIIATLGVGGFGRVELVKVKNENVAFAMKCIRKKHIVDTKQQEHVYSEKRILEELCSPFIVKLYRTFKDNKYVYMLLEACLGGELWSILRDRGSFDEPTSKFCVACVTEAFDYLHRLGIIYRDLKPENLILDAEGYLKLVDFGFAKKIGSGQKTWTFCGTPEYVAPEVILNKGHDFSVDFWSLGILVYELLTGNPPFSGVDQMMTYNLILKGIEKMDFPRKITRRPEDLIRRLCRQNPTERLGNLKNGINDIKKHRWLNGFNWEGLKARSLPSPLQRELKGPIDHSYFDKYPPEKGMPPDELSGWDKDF

[4] = molecular target: panel of 255 wild-type kinases (Homo sapiens, UniProt Q9H4B4)
[5] = molecular target: panel of 255 wild-type kinases (Homo sapiens, UniProt Q9Y243)
[6] = molecular target: panel of 255 wild-type kinases (Homo sapiens, UniProt O43683)
[7] = molecular target: panel of 255 wild-type kinases (Homo sapiens, UniProt Q9Y6M4)
[8] = molecular target: panel of 255 wild-type kinases (Homo sapiens, UniProt P68400)
[9] = molecular target: panel of 255 wild-type kinases (Homo sapiens, UniProt P53779)
[10] = kinase SGK2, 1 µmol/L single concentration, ref DOI: 10.1158/1535-7163.MCT-18-0877
[11] = kinase CLK2, 1 µmol/L single concentration, ref DOI: 10.1158/1535-7163.MCT-18-0877
[12] = CGK2 kinase assay, 1 µmol/L single concentration, ref DOI: 10.1158/1535-7163.MCT-18-0877
[13] = kinase PLK3, 1 µmol/L single concentration, ref DOI: 10.1158/1535-7163.MCT-18-0877
[14] = AKT3 kinase assay, 1 µmol/L single concentration, ref DOI: 10.1158/1535-7163.MCT-18-0877
[15] = BUB1/BUB3 kinase assay, 1 µmol/L single concentration, ref DOI: 10.1158/1535-7163.MCT-18-0877
[16] = kinase CK1γ3, 1 µmol/L single concentration, ref DOI: 10.1158/1535-7163.MCT-18-0877
[17] = kinase CK2α1/β, 1 µmol/L single concentration, ref DOI: 10.1158/1535-7163.MCT-18-0877
[18] = kinase JNK3, 1 µmol/L single concentration, ref DOI: 10.1158/1535-7163.MCT-18-0877
[19] = kinase SGK2, 1 µmol/L single concentration, ref DOI: 10.1371/journal.pone.0092146
[20] = kinase CLK2, 1 µmol/L single concentration, ref DOI: 10.1371/journal.pone.0092146
[21] = CGK2 kinase assay, 1 µmol/L single concentration, ref DOI: 10.1371/journal.pone.0092146
[22] = kinase PLK3, 1 µmol/L single concentration, ref DOI: 10.1371/journal.pone.0092146
[23] = AKT3 kinase assay, 1 µmol/L single concentration, ref DOI: 10.1371/journal.pone.0092146
[24] = kinase CK1γ3, 1 µmol/L single concentration, ref DOI: 10.1371/journal.pone.0092146
[25] = kinase CK2α1/β, 1 µmol/L single concentration, ref DOI: 10.1371/journal.pone.0092146
[26] = kinase JNK3, 1 µmol/L single concentration, ref DOI: 10.1371/journal.pone.0092146

## CC#CC(=O)N1CCC[C@H]1c1nc(-c2ccc(C(=O)Nc3ccccn3)cc2)c2c(N)nccn12 [acalabrutinib]
[1]; [10]
  %-inhibition at 1 µmol/L, SGK2: -19%
[2]; [11]
  %-inhibition at 1 µmol/L, CLK2: -7%
[3]; [12]
  %-inhibition CGK2: 1.55%
[4]; [13]
  %-inhibition at 1 µmol/L, PLK3: 1.76%
[5]; [14]
  %-inhibition AKT3: -5%
[6]; [15]
  %-inhibition BUB1/BUB3: 5.51%
[7]; [16]
  %-inhibition at 1 µmol/L, CK1γ3: -15%
[8]; [17]
  %-inhibition at 1 µmol/L, CK2α1/β: 5.34%
[9]; [18]
  %-inhibition at 1 µmol/L, JNK3: -0.893%

## CCc1cc2c(cc1N1CCC(N3CCOCC3)CC1)C(C)(C)c1[nH]c3cc(C#N)ccc3c1C2=O [alectinib]
[1]; [10]
  %-inhibition at 1 µmol/L, SGK2: -5%
[2]; [11]
  %-inhibition at 1 µmol/L, CLK2: 14%
[3]; [12]
  %-inhibition CGK2: 7.53%
[4]; [13]
  %-inhibition at 1 µmol/L, PLK3: -4%
[5]; [14]
  %-inhibition AKT3: -0.889%
[6]; [15]
  %-inhibition BUB1/BUB3: 2%
[7]; [16]
  %-inhibition at 1 µmol/L, CK1γ3: 0.159%
[8]; [17]
  %-inhibition at 1 µmol/L, CK2α1/β: -3.18%
[9]; [18]
  %-inhibition at 1 µmol/L, JNK3: -0.533%

## COc1cc(N2CCC(N3CCN(C)CC3)CC2)ccc1Nc1ncc(Cl)c(Nc2ccccc2P(C)(C)=O)n1 [brigatinib]
[1]
  %-inhibition at 1 µmol/L, SGK2: -8%
[2]
  %-inhibition at 1 µmol/L, CLK2: 91%
[3]
  %-inhibition CGK2: 37%
[4]
  %-inhibition at 1 µmol/L, PLK3: -2.57%
[5]
  %-inhibition AKT3: -0.864%
[6]
  %-inhibition BUB1/BUB3: 14%
[7]
  %-inhibition at 1 µmol/L, CK1γ3: 0.829%
[8]
  %-inhibition at 1 µmol/L, CK2α1/β: 8.51%
[9]
  %-inhibition at 1 µmol/L, JNK3: 52%

## Cc1cc(Nc2ncc(Cl)c(Nc3ccccc3S(=O)(=O)C(C)C)n2)c(OC(C)C)cc1C1CCNCC1 [ceritinib]
[1]; [10]
  %-inhibition at 1 µmol/L, SGK2: -5.59%
[2]; [11]
  %-inhibition at 1 µmol/L, CLK2: 99%
[3]; [12]
  %-inhibition CGK2: 14%
[4]; [13]
  %-inhibition at 1 µmol/L, PLK3: -0.156%
[5]; [14]
  %-inhibition AKT3: -4%
[6]; [15]
  %-inhibition BUB1/BUB3: 5.67%
[7]; [16]
  %-inhibition at 1 µmol/L, CK1γ3: 11%
[8]; [17]
  %-inhibition at 1 µmol/L, CK2α1/β: -8%
[9]; [18]
  %-inhibition at 1 µmol/L, JNK3: 16%

## O=C(c1ccc(F)c(F)c1Nc1ccc(I)cc1F)N1CC(O)([C@@H]2CCCCN2)C1 [cobimetinib]
[1]; [10]
  %-inhibition at 1 µmol/L, SGK2: 7%
[2]; [11]
  %-inhibition at 1 µmol/L, CLK2: 0.147%
[3]; [12]
  %-inhibition CGK2: 0.273%
[4]; [13]
  %-inhibition at 1 µmol/L, PLK3: 4%
[5]; [14]
  %-inhibition AKT3: -3.43%
[6]; [15]
  %-inhibition BUB1/BUB3: 6.61%
[7]; [16]
  %-inhibition at 1 µmol/L, CK1γ3: 6%
[8]; [17]
  %-inhibition at 1 µmol/L, CK2α1/β: -9%
[9]; [18]
  %-inhibition at 1 µmol/L, JNK3: -0.412%

## C[C@@H](Oc1cc(-c2cnn(C3CCNCC3)c2)cnc1N)c1c(Cl)ccc(F)c1Cl [crizotinib]
[1]; [19]
  %-inhibition at 1 µmol/L, SGK2: -2.31%
[2]; [20]
  %-inhibition at 1 µmol/L, CLK2: -6%
[3]; [21]
  %-inhibition CGK2: -0.915%
[4]; [22]
  %-inhibition at 1 µmol/L, PLK3: -2.24%
[5]; [23]
  %-inhibition AKT3: -1.83%
[7]; [24]
  %-inhibition at 1 µmol/L, CK1γ3: 4%
[8]; [25]
  %-inhibition at 1 µmol/L, CK2α1/β: -6.39%
[9]; [26]
  %-inhibition at 1 µmol/L, JNK3: -1.87%

## CC(C)(C)c1nc(-c2cccc(NS(=O)(=O)c3c(F)cccc3F)c2F)c(-c2ccnc(N)n2)s1 [dabrafenib]
[1]; [19]
  %-inhibition at 1 µmol/L, SGK2: -7.58%
[2]; [20]
  %-inhibition at 1 µmol/L, CLK2: 0.875%
[3]; [21]
  %-inhibition CGK2: -1.38%
[9]; [26]
  %-inhibition at 1 µmol/L, JNK3: 5.59%

## C=CC(=O)N1CCC[C@@H](n2nc(-c3ccc(Oc4ccccc4)cc3)c3c(N)ncnc32)C1 [ibrutinib]
[3]; [12]
  %-inhibition CGK2: -1.77%
[4]; [13]
  %-inhibition at 1 µmol/L, PLK3: 1.53%
[5]; [14]
  %-inhibition AKT3: -2.25%
[6]; [15]
  %-inhibition BUB1/BUB3: 5%
[7]; [16]
  %-inhibition at 1 µmol/L, CK1γ3: 4%
[8]; [17]
  %-inhibition at 1 µmol/L, CK2α1/β: -11%
[9]; [18]
  %-inhibition at 1 µmol/L, JNK3: 1%

## CO[C@@H]1[C@H](N(C)C(=O)c2ccccc2)C[C@H]2O[C@]1(C)n1c3ccccc3c3c4c(c5c6ccccc6n2c5c31)C(=O)NC4 [midostaurin]
[1]; [10]
  %-inhibition at 1 µmol/L, SGK2: -0.775%
[4]; [13]
  %-inhibition at 1 µmol/L, PLK3: -0.227%
[6]; [15]
  %-inhibition BUB1/BUB3: 6.4%
[7]; [16]
  %-inhibition at 1 µmol/L, CK1γ3: -1.25%
[8]; [17]
  %-inhibition at 1 µmol/L, CK2α1/β: -5.6%

## C=CC(=O)Nc1cc(Nc2nccc(-c3cn(C)c4ccccc34)n2)c(OC)cc1N(C)CCN(C)C [osimertinib]
[1]; [10]
  %-inhibition at 1 µmol/L, SGK2: 26%
[2]; [11]
  %-inhibition at 1 µmol/L, CLK2: 38%
[3]; [12]
  %-inhibition CGK2: 11%
[4]; [13]
  %-inhibition at 1 µmol/L, PLK3: 5%
[5]; [14]
  %-inhibition AKT3: -1.74%
[6]; [15]
  %-inhibition BUB1/BUB3: 11%
[7]; [16]
  %-inhibition at 1 µmol/L, CK1γ3: 13%
[8]; [17]
  %-inhibition at 1 µmol/L, CK2α1/β: 12%
[9]; [18]
  %-inhibition at 1 µmol/L, JNK3: 1.89%

## CC(=O)Nc1cccc(-n2c(=O)n(C3CC3)c(=O)c3c(Nc4ccc(I)cc4F)n(C)c(=O)c(C)c32)c1 [trametinib]
[1]; [19]
  %-inhibition at 1 µmol/L, SGK2: -7%
[2]; [20]
  %-inhibition at 1 µmol/L, CLK2: -5%
[3]; [21]
  %-inhibition CGK2: -2.61%
[4]; [22]
  %-inhibition at 1 µmol/L, PLK3: -6.59%
[5]; [23]
  %-inhibition AKT3: -5.3%
[8]; [25]
  %-inhibition at 1 µmol/L, CK2α1/β: -3.4%
[9]; [26]
  %-inhibition at 1 µmol/L, JNK3: -2.37%

## CCCS(=O)(=O)Nc1ccc(F)c(C(=O)c2c[nH]c3ncc(-c4ccc(Cl)cc4)cc23)c1F [vemurafenib]
[1]; [19]
  %-inhibition at 1 µmol/L, SGK2: 2.66%
[2]; [20]
  %-inhibition at 1 µmol/L, CLK2: -13%
[3]; [21]
  %-inhibition CGK2: -2.26%
[4]; [22]
  %-inhibition at 1 µmol/L, PLK3: -2.83%
[5]; [23]
  %-inhibition AKT3: -0.678%
[7]; [24]
  %-inhibition at 1 µmol/L, CK1γ3: 2.14%
[8]; [25]
  %-inhibition at 1 µmol/L, CK2α1/β: -5.39%
[9]; [26]
  %-inhibition at 1 µmol/L, JNK3: 2.85%
